Data set [1] can be described thus: Solubility in water and in 0.1N HCl (1 hour shaking at room temperature, UV-spectroscopy). The format is physicochemical. How it is done: An excess of compound was added to 5 ml of solvent (the type of solvent is specified in the table). The mixture was shaken during 1 hour at room temperature. The precipitate was filtered off. The concentration of the compound was measured via UV-spectroscopy and is shown in the column "Solubility".

The subject of data set [2] is Candida albicans. Kind of data set: Mouse disseminated Candida model. It counts as in vivo. Conditions: IV route; treatment repeated daily for 9 days; mice. As to the method: Mice in groups of 10 were infected intravenously with 8×10^5 CFU of Candida albicans. Treatment was begun on the day of infection and repeated daily for 9 days. Candida albicans CFU/g kidney were measured for all mice that died spontaneously or were killed on day 10.
The table indicates the lowest concentrations of the shown compounds that achieved a reduction in mean Candida counts of 1 log (i.e. a 10-fold reduction) or more, either in the triple mycosis model or the disseminated Candida infection; also the lowest concentrations that reduced mean skin scores below 1.0 in the cutaneous dermatophytosis component of this model (NT=nor tested, IV=intravenous).

A further data set has as its system Trichophyton quinckeanum. Kind of data set: Mouse triple mycosis model: cutaneous dermatophytosis (trichophytosis). It counts as in vivo. Further details: unit not given here. Conditions: treatment for 5 days, mice. How it is done: (§1) The test compounds were evaluated for their activity in a mouse model of fungal infection in which three mycoses--vaginal candidosis, cutaneous trichophytosis and disseminated aspergillosis--were established simultaneously. The mice, in groups of 10, were pretreated with subcutaneous injections of oestradiol valerate (500 μg) then inoculated on day 0 with the following: 100 000 colony forming units (CFU)/g of Aspergillus fumigatus B 19119 intravenously, a suspension containing 10^8 Candida albicans cells intravaginally and a aqueous suspension of Trichophyton quinckeanum on lightly scarified dorsal skin. Treatment with the test compounds (orally or intravenously) was begun on the day of infection and continued for 5 days.

In data set [3] the test system is Candida albicans. Kind of data set: Mouse triple mycosis model: vaginal candidosis. The settings on record: treatment for 5 days, mice. The format is in vivo. Further details: unit not given here. As to the method: as §1
[4] abbreviates: water, solvent: water, measured pH 6.65 to 7.01.
The mark [5] stands for this setting: 0.1n hcl, solvent: 0.1N HCl, measured pH 1.25 to 1.75.

Structures are written as SMILES. Converted amounts (≈) assume the structure as drawn. Where a name gives a salt, the structure may show the parent alone. Where only a bound is given, the exact number is not on record here.

Broadly, the solubility is the concentration that dissolves in the medium under given conditions. Broadly, the Solubility is the concentration that dissolves in the medium under given conditions.

With `CC(C)(C)C(Cn1ncn(-c2ccc(N3CCN(c4ccc(OC[C@H]5CO[C@](Cn6cncn6)(c6ccc(F)cc6F)O5)cc4)CC3)cc2)c1=O)OP(=O)(O)Oc1ccccc1` (mixture of isomers) [Compound 2, (±)-cis-1-[[4-[4-[4-[4-[[2-(2,4-difluorophenyl)-2-(1H-1,2,4-triazol-1-ylmethyl)-1,3-dioxolan-4-yl]methoxy]phenyl]-1-piperazinyl]phenyl]-4,5-dihydro-5-oxo-1H-1,2,4-triazol-1-yl]methyl]-2,2-dimethylpropyl phenyl sodium phosphate], in data set [1] (solvent: water, measured pH 6.65 to 7.01), the solubility at 1 h was above 6000 µg/mL.

Turning to `CC(C)(C)C(Cn1ncn(-c2ccc(N3CCN(c4ccc(OC[C@H]5CO[C@](Cn6cncn6)(c6ccc(F)cc6F)O5)cc4)CC3)cc2)c1=O)OP(=O)(O)O` (mixture of isomers) [Compound 3, (±)-ammonium cis-1-[[4-[4-[4-[4-[[2-(2,4-difluorophenyl)-2-(1H-1,2,4-triazol-1-ylmethyl)-1,3-dioxolan-4-yl]methoxy]phenyl]-1-piperazinyl]phenyl]-4,5-dihydro-5-oxo-1H-1,2,4-triazol-1-yl]methyl]-2,2-dimethylpropyl phosphate], the “lowest concentration, Kidney Candida CFU reduced by 1 log or more” value in the data set on Candida albicans [2] was 10. The compound also yielded a solubility at 1 h in data set [1] (setting [4]) of 31900 µg/mL. The “lowest concentration, Dermatophyte skin score reduced to ≤1” value in the data set on Trichophyton quinckeanum (IV route) and in the data set on Trichophyton quinckeanum (oral route) was 2.5 throughout. The “lowest concentration, Vaginal Candida CFU reduced by 1 log or more” value in the data set with Candida albicans [3] (IV route) and in the data set on Candida albicans [3] (oral route) was 2.5 each time. `CC(C)(C)C(Cn1ncn(-c2ccc(N3CCN(c4ccc(OC[C@H]5CO[C@](Cn6cncn6)(c6ccc(Cl)cc6)O5)cc4)CC3)cc2)c1=O)OP(=O)(O)O` (mixture of isomers) [Compound 7, (±)-ammonium cis-1-[[4-[4-[4-[4-[[2-(4-chlorophenyl)-2-(1H-1,2,4-triazol-1-yl-methyl)-1,3-dioxolan-4-yl]methoxy]phenyl]-1-piperazinyl]phenyl]-4,5-dihydro-5-oxo-1H-1,2,4-triazol-1-yl]methyl]-2,2-dimethylpropyl phosphate(ester) monohydrate] registered a solubility at 1 h in data set [1] (setting [4]) of 350 µg/mL. Same read-out and setting: to `CC(C)(C)C(Cn1ncn(-c2ccc(N3CCN(c4ccc(OC[C@H]5CO[C@](Cn6cncn6)(c6ccc(F)cc6)O5)cc4)CC3)cc2)c1=O)OP(=O)(O)O` (mixture of isomers) [Compound 9, (±)-ammonium cis-1-[[4-[4-[4-[4-[[2-(4-fluorophenyl)-2-(1H-1,2,4-triazol-1-ylmethyl)-1,3-dioxolan-4-yl]methoxy]phenyl]-1-piperazinyl]phenyl]-4,5-dihydro-5-oxo-1H-1,2,4-triazol-1-yl]methyl]-2,2-dimethylpropyl phosphate] belongs 2650 µg/mL. `CC(C)(C)C(Cn1ncn(-c2ccc(N3CCN(c4ccc(OC[C@H]5CO[C@](Cn6cncn6)(c6ccc(F)cc6F)O5)cc4)CC3)cc2)c1=O)OP(=O)(O)O` (mixture of isomers) [Compound 17, (±)-cis-4-[4-[4-[4-[[2-(2,4-difluorophenyl)-2-(1H-1,2,4-triazol-1-ylmethyl)-1,3-dioxolan-4-yl]methoxy]phenyl]-1-piperazinyl]phenyl]-2-[3,3-dimethyl-2-(phosphonooxy)butyl]-2,4-dihydro-3H-1,2,4-triazol-3-one hemihydrate]: in the data set with Trichophyton quinckeanum (IV route, hemihydrate), the “lowest concentration, Dermatophyte skin score reduced to ≤1” value is below 2.5. Also, the “lowest concentration, Vaginal Candida CFU reduced by 1 log or more” value with Candida albicans [3] (IV route, hemihydrate) is recorded as below 2.5.

For the compound `CC(C)(C)C(Cn1ncn(-c2ccc(N3CCN(c4ccc(OC[C@H]5CO[C@](Cn6cncn6)(c6ccc(F)cc6F)O5)cc4)CC3)cc2)c1=O)OC(=O)CCN` (mixture of isomers) [Compound 36, (±)-cis-1-[[4-[4-[4-[4-[[2-(2,4-difluorophenyl)-2-(1H-1,2,4-triazol-1-ylmethyl)-1,3-dioxolan-4-yl]methoxy]phenyl]-1-piperazinyl]phenyl]-4,5-dihydro-5-oxo-1H-1,2,4-triazol-1-yl]methyl]-2,2-dimethylpropyl β-alanine monohydrochloride], the solubility at 1 h in data set [1] (setting [5]) was above 6000 µg/mL. Still for that read-out and setting: then `CC(C)(C)C(Cn1ncn(-c2ccc(N3CCN(c4ccc(OC[C@H]5CO[C@](Cn6cncn6)(c6ccc(F)cc6F)O5)cc4)CC3)cc2)c1=O)OC(=O)CCN1CCCC1` (mixture of isomers) [Compound 37, (±)-cis-1-[[4-[4-[4-[4-[[2-(2,4-difluorophenyl)-2-(1H-1,2,4-triazol-1-ylmethyl)-1,3-dioxolan-4-yl]methoxy]phenyl]-1-piperazinyl]phenyl]-4,5-dihydro-5-oxo-1H-1,2,4-triazol-1-yl]methyl]-2,2-dimethylpropyl 1-pyrrolidinepropanoate . monohydrochloride . monohydrate], with above 6000 µg/mL. For the compound `CN1CCN(CC(=O)OC(Cn2ncn(-c3ccc(N4CCN(c5ccc(OC[C@H]6CO[C@](Cn7cncn7)(c7ccc(F)cc7F)O6)cc5)CC4)cc3)c2=O)C(C)(C)C)CC1` (mixture of isomers) [Compound 34, (±)-cis-1-[[4-[4-[4-[4-[[2-(2,4-difluorophenyl)-2-(1H-1,2,4-triazol-1-ylmethyl)-1,3-dioxolan-4-yl]methoxy]phenyl]-1-piperazinyl]phenyl]-4,5-dihydro-5-oxo-1H-1,2,4-triazol-1-yl]methyl]-2,2-dimethylpropyl 4-methyl-1-piperazineacetate monohydrochloride], the “lowest concentration, Kidney Candida CFU reduced by 1 log or more” value with Candida albicans [2] worked out at 5. The compound further displayed a Solubility in data set [1] (solvent: 0.1N HCl, measured pH 1.25 to 1.75, monohydrochloride, 60 min) above 6000 µg/mL. Moreover, the “lowest concentration, Dermatophyte skin score reduced to ≤1” value in the data set with Trichophyton quinckeanum (IV route) and in the data set on Trichophyton quinckeanum (oral route) was 2.5 throughout. Further, the “lowest concentration, Vaginal Candida CFU reduced by 1 log or more” value with Candida albicans [3] (IV route) and in the data set with Candida albicans [3] (oral route) was 2.5 in each case. For `CN1CCN(CC(=O)OC(Cn2ncn(-c3ccc(N4CCN(c5ccc(OC[C@H]6CO[C@](Cn7cncn7)(c7ccc(F)cc7F)O6)cc5)CC4)cc3)c2=O)C(C)(C)C)CC1` (stereo partly drawn) [Compound 29], the solubility at 1 h in data set [1] (setting [5]) amounted to 4890 µg/mL (≈ 5.71 mM). In data set [1] (setting [5]), `CCN(CC)CC(=O)OC(Cn1ncn(-c2ccc(N3CCN(c4ccc(OC[C@H]5CO[C@](Cn6cncn6)(c6ccc(F)cc6F)O5)cc4)CC3)cc2)c1=O)C(C)(C)C` (stereo partly drawn) [Compound 30] returned a solubility at 1 h of 5220 µg/mL (≈ 6.29 mM). As to `CC(C)(C)C(Cn1ncn(-c2ccc(N3CCN(c4ccc(OC[C@H]5CO[C@](Cn6cncn6)(c6ccc(F)cc6F)O5)cc4)CC3)cc2)c1=O)OC(=O)CN1CCN(CCO)CC1` (stereo partly drawn) [Compound 31], the solubility at 1 h in data set [1] (setting [5]) is above 6000 µg/mL.

`CN1CCN(CCC(=O)OC(Cn2ncn(-c3ccc(N4CCN(c5ccc(OC[C@H]6CO[C@](Cn7cncn7)(c7ccc(F)cc7F)O6)cc5)CC4)cc3)c2=O)C(C)(C)C)CC1` (stereo partly drawn) [Compound 33] returned a solubility at 1 h in data set [1] (setting [5]) above 6000 µg/mL. The compound `CC(C)(C)C(Cn1ncn(-c2ccc(N3CCN(c4ccc(OC[C@H]5CO[C@](Cn6cncn6)(c6ccc(F)cc6F)O5)cc4)CC3)cc2)c1=O)OC(=O)CN` (stereo partly drawn) [Compound 38] displayed a solubility at 1 h in data set [1] (setting [5]) above 6000 µg/mL.
